Experiment in all cases: growth of human tumour cells (NCI), 48 h
The subject of test [1] is NCI/ADR-RES ovarian.
Test [2] concerns NCI-H23 lung.
For test [3], the system named is U251 CNS.
Test [4] deals with OVCAR-4 ovarian.
The test system of test [5] is HOP-92 NSCLC.
In test [6] the test system is ACHN renal.
The test system of test [7] is SNB-19 CNS.
Test [8] concerns SF-539 CNS.
For test [9], the system named is HOP-62 NSCLC.
The test system of test [10] is MALME-3M melanoma.

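Briefly, cells in 96-well plates were exposed to five compound concentrations for 48 h, and endpoints were estimated by linear interpolation. GI50 marks 50% less growth. The concentration for full growth arrest is given as TGI.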

Take `CNC(=O)c1cccc2cc(Oc3ccnc4cc(OCC5(N)CC5)c(OC)cc34)ccc12`: the GI50 in [1] is 12.7 µM; in [2], 11.2 µM; in test [3], 9.43 µM; in test [4], 2.89 µM; in [5] it was 6.89 µM; in test [6], 1.96 µM. The GI50 in test [7] is 5.82 µM; in [8], 0.403 µM; in test [9], 10.7 µM; in test [10], 9.07 µM. Further, the TGI worked out at 31.9 µM in [1]; 28.9 µM in test [2]; 23.3 µM in test [3]; 21.8 µM in test [4]; 21 µM in test [5]; 4.48 µM in test [6]. Also, the TGI in [7] stood at 30.4 µM; in test [8], 6.61 µM; in test [9] it was 27.6 µM; in test [10], 26.8 µM.
For `COc1cc2c3c(n(CCCCN)c(=O)c2cc1OC)-c1cc2c(cc1C3=O)OCO2`, the GI50 in test [1] is 2.34 µM; in test [2], 0.676 µM; in test [3] it was 0.407 µM; in test [4], 0.719 µM; in test [5] it was 0.487 µM; in test [6] it was 0.38 µM. Also, the GI50 is 0.464 µM in [7], 0.0434 µM in test [8], 0.322 µM in test [9] and 4.11 µM in test [10]. Besides, the TGI in test [1] came out at 11.2 µM; in test [2], 3.09 µM; in [3], 2.86 µM; in test [4], 4.66 µM; in [5] it was 2.43 µM; in test [6] it was 1.35 µM. Further, the TGI in [7] turned out to be 6.75 µM; in test [8] it was 0.139 µM; in test [9], 1.21 µM; in test [10] it was 11.2 µM.
Regarding `O=C(Nc1cccc(-n2cc(-c3ccncc3)c(-c3ccc(Cl)c(O)c3)n2)c1)c1ccc(N2CCOCC2)c(C(F)(F)F)c1`, the GI50 is 2.86 µM in [1]; 4.2 µM in test [2]; 1.85 µM in test [3]; 39.2 µM in test [4]; 0.555 µM in test [5]; 1.92 µM in test [6]. Besides, the GI50 was 4.11 µM in test [7], 1.37 µM in test [8], 9.38 µM in test [9] and 1.25 µM in test [10]. Besides, the TGI in test [1] is more than 50 µM; in test [2], 30.2 µM; in test [3], 24.9 µM; in [4], more than 50 µM; in [5], 3.81 µM; in [6] it was more than 50 µM. For the same molecule, the TGI is more than 50 µM in test [7], 17.3 µM in test [8], more than 50 µM in test [9] and 4.08 µM in test [10].
As to `COC(=O)c1ccccc1OCc1cc(=O)oc2ccc(C)cc12`, the TGI in test [1] is more than 100 µM; in [2] it was more than 100 µM; in test [3], 35.4 µM; in test [4] it was more than 63.4 µM; in [5], more than 74.7 µM; in test [6], more than 100 µM. Besides, the TGI in test [7] was 38.9 µM; in test [8] it was 78.5 µM; in test [9], more than 57.5 µM; in test [10], more than 100 µM.
`COc1cccc(-n2nc(C)c3c(N/N=C(\C)c4ccncc4)ncnc32)c1`: the GI50 is more than 25 µM in test [1]; more than 25 µM in test [2]; more than 22.2 µM in [3]; more than 25 µM in [4]; 1.86 µM in test [5]; more than 25 µM in test [6]. For the same molecule, the GI50 was more than 25 µM in [7], 22.8 µM in test [8], more than 25 µM in test [9] and 10.3 µM in test [10]. Further, the TGI is more than 25 µM in [1]; more than 25 µM in [2]; more than 25 µM in test [3]; more than 25 µM in test [4]; 16.9 µM in test [5]; more than 25 µM in [6]. Also, the TGI in test [7], in test [8], in test [9] and in test [10] was more than 25 µM each time.
For `COc1ccc(/C=C/C(=O)c2ccc(O)c(CN3CCN(c4cc5c(cc4F)c(=O)c(C(=O)O)cn5C4CC4)CC3)c2)cc1`, the GI50 is 4.44 µM in [1]; 2.33 µM in [2]; 0.387 µM in [3]; 54.9 µM in test [4]; 1.23 µM in test [5]; 2.18 µM in test [6]. Moreover, the GI50 in [7] is 0.785 µM; in test [8], 0.407 µM; in test [9], 1.97 µM; in test [10] it was 1.59 µM. Besides, the TGI in test [1] was more than 100 µM; in [2], more than 100 µM; in test [3] it was more than 100 µM; in [4], more than 100 µM; in test [5], 6.21 µM; in test [6] it was 17.9 µM. The TGI in [7] is more than 100 µM; in test [8], more than 100 µM; in [9], more than 100 µM; in test [10], 16.4 µM.
Consider `CN[C@H](C#Cc1c(F)ccc2c1/C(=C/c1[nH]ccc1OC)C(=O)N2)CO`, for which the GI50 in test [1] was 0.973 µM; in test [2], 0.657 µM; in test [3], 0.323 µM; in test [4] it was 0.631 µM; in test [5] it was 3.17 µM; in test [6], 0.115 µM. In addition, the GI50 in test [7] is 1.06 µM; in test [8] it was 0.431 µM; in test [9] it was 0.628 µM; in test [10] it was 1.46 µM. Further, the TGI in test [1] turned out to be 6.58 µM; in test [2] it was 3.11 µM; in test [3], 2.94 µM; in [4], 4.22 µM; in test [5], 11.8 µM; in [6], 2.71 µM. Moreover, the TGI was 21 µM in test [7], 1.53 µM in test [8], 2.42 µM in test [9] and 5.06 µM in [10].
Take `COc1cccc(-c2nn(-c3ccccc3)cc2-c2ccnc(NCCCNC(=O)Nc3ccc(Cl)c(Cl)c3)c2)c1`: the GI50 in test [1] was 2.19 µM; in test [2], 3.16 µM; in [3], 3.1 µM; in [4], 3.55 µM; in test [5], 2.32 µM; in test [6], 4.23 µM. Moreover, the GI50 in test [7] is 4.01 µM; in test [8], 2.25 µM; in test [9] it was 3.23 µM; in test [10], 1.86 µM. For the same molecule, the TGI is 5.39 µM in test [1]; 13.9 µM in [2]; 11.7 µM in [3]; 18.1 µM in [4]; 7.68 µM in test [5]; 22.4 µM in [6]. The TGI in test [7] was 25.6 µM; in test [8], 5.29 µM; in test [9], 8.88 µM; in [10] it was 3.9 µM.
On to `O=c1ccn(C2CC(O)C(CO)O2)c(=O)[nH]1` (centres undefined), for which the GI50 in [1], in test [2], in [3], in test [4], in [5] and in test [6] was more than 5000 µM in each case. Besides, the GI50 in test [7], in test [8], in [9] and in test [10] was more than 5000 µM each time. The TGI in test [1], in test [2], in test [3], in [4], in test [5] and in [6] was more than 5000 µM each time. In addition, the TGI in test [7], in [8], in [9] and in [10] was more than 5000 µM in each case.
In the case of `O=C1C(N2CC2)=C(N2CC2)C(=O)C(N2CC2)=C1N1CC1`, the TGI in [1] worked out at 1.3 µM; in [2], 0.245 µM; in [3], 3.18 µM; in [4], 7.65 µM; in test [5] it was 29.7 µM; in [6] it was 0.351 µM. Besides, the TGI in test [7] amounted to 4.32 µM; in test [8] it was 1.24 µM; in test [9] it was 1.05 µM; in test [10], 1.31 µM. The GI50 was less than 0.0233 µM in [2]; 0.275 µM in test [3]; 2.06 µM in [4]; 2.99 µM in [5]; less than 0.0179 µM in [6]; 0.14 µM in [7]. Besides, the GI50 in [8] is 0.104 µM; in test [9], 0.0822 µM; in [10] it was 0.225 µM.
For the molecule `COc1cc2ccccc2oc1=O`, the TGI in test [1], in test [2], in test [3], in test [4], in test [5] and in test [6] was more than 100 µM throughout. Further, the TGI in test [7], in [8], in [9] and in [10] was more than 100 µM in each case.
For `C=C1/C(=C\C=C2/CCC[C@]3(C)[C@@H]([C@H](C)CCCC(C)(C)O)CC[C@@H]23)C[C@@H](OC(=O)CBr)C[C@@H]1O`, the GI50 was 1.95 µM in test [1]; 0.386 µM in test [2]; 4.51 µM in test [3]; 0.329 µM in test [4]; 0.138 µM in [5]; 0.709 µM in test [6]. Also, the GI50 is 11.2 µM in test [7], 0.212 µM in test [8], 12.9 µM in [9] and 0.184 µM in [10]. Besides, the TGI stood at 18.7 µM in [1]; 2.31 µM in test [2]; 18.8 µM in test [3]; 1.6 µM in [4]; 0.445 µM in test [5]; 5.13 µM in test [6]. Also, the TGI in test [7] turned out to be 24.9 µM; in [8] it was 0.629 µM; in test [9], 30.5 µM; in [10], 0.674 µM.
Turning to `c1cc2n(n1)CCN2`, the TGI is 6590 µM in [1]; 6720 µM in [2]; 5740 µM in test [3]; more than 9780 µM in [4]; more than 10000 µM in test [5]; 5330 µM in [6]. Also, the TGI was more than 10000 µM in test [7], 4990 µM in test [8], more than 9550 µM in test [9] and 9920 µM in test [10].
On to `C=CCC1(O)c2ccccc2C(=O)c2c(NCCN(CC(=O)OCC)CC(=O)OCC)cccc21` (centres undefined), for which the GI50 in test [1], in [2], in test [3], in test [4], in test [5] and in test [6] was more than 100 µM throughout. Further, the GI50 in test [7], in test [8], in test [9] and in test [10] was more than 100 µM each time. Besides, the TGI in [1], in [2], in test [3], in test [4], in [5] and in test [6] was more than 100 µM in each case. The TGI in test [7], in test [8], in test [9] and in [10] was more than 100 µM each time.
Take `O=C(O)c1cc2ccc3ccccc3c2oc1=O`: the TGI in test [1], in test [2], in test [3], in test [4], in test [5] and in test [6] was more than 100 µM in each case. In addition, the TGI in test [7], in [8], in test [9] and in [10] was more than 100 µM each time.
As to `O=[N+]([O-])c1ccc2c(c1)Cc1cc(N=Cc3ccc4c(c3)OCO4)ccc1-2`, the TGI in [1], in test [2], in test [3], in test [4], in [5] and in test [6] was more than 100 µM each time. In addition, the TGI in [7], in test [8], in test [9] and in [10] was more than 100 µM each time.
Turning to `CCOC(=O)c1cc2c(n1Cc1cccc(OC)c1)-c1oncc1CCC2`, the GI50 in test [1] was 0.69 µM; in test [2], 8.68 µM; in [3], 2.16 µM; in test [4], 8.38 µM; in test [5], 2.68 µM; in test [6], 4.42 µM. Further, the GI50 in test [7] was 25.3 µM; in test [8] it was 1.19 µM; in [9] it was 3.54 µM; in [10], 0.695 µM. Further, the TGI is more than 21.7 µM in [1]; more than 100 µM in test [2]; more than 100 µM in [3]; more than 100 µM in test [4]; 49.2 µM in [5]; more than 100 µM in test [6]. The TGI in test [7] is more than 100 µM; in test [8], 4.68 µM; in test [9], more than 100 µM; in [10], more than 100 µM.

Source of the values: PubChem BioAssay (NCI).
